What was measured:
[1] = test system: Hepatitis B virus; experiment: Antiviral activity against HBV with lamivudine-resistant polymerase M204I mutant in Huh7 cells after 5 days; type: functional, organism-based; conditions: Huh-7, 120 h
[2] = test system: Human betaherpesvirus 5; experiment: Antiviral activity against HCMV AD169 in HFF cells by plaque reduction assay; type: functional, organism-based; conditions: Human betaherpesvirus 5, AD169, HFF
[3] = test system: Hepatitis B virus; experiment: Antiviral activity against HBV with lamivudine-resistant polymerase L180M/M204V double mutant in Huh7 cells after 5 days; type: functional, organism-based; conditions: Huh-7, 120 h
[4] = test system: Hepatitis B virus; experiment: Antiviral activity against HBV with lamivudine-resistant polymerase L180M mutant in Huh7 cells after 5 days; type: functional, organism-based; conditions: Huh-7, 120 h
[5] = test system: Human alphaherpesvirus 3; experiment: Antiviral activity against VZV Ellen in HFF cell by CPE assay; type: functional, organism-based; conditions: Human alphaherpesvirus 3, Ellen
[6] = test system: Hepatitis B virus; experiment: Antiviral activity against HBV in HepG2 2.2.15 cells after 24 hrs by DNA reduction assay; type: functional, organism-based; conditions: HepG2, 24 h
[7] = test system: Human gammaherpesvirus 4; experiment: Antiviral activity against EBV in Daudi cells by ELISA; type: functional, organism-based; conditions: human gammaherpesvirus 4, Daudi
[8] = test system: Cowpox virus; experiment: Antiviral activity against Cowpox virus Brighton in HFF cells by plaque reduction assay; type: functional, organism-based
[9] = test system: Vaccinia virus; experiment: Antiviral activity against Vaccinia virus Copenhagen in HFF cells by plaque reduction assay; type: functional, organism-based; conditions: Orthopoxvirus vaccinia
[10] = test system: Human alphaherpesvirus 1; experiment: Antiviral activity against HSV1 in MRC5 cells by DNA reduction assay; type: functional, organism-based; conditions: Human alphaherpesvirus 1, MRC5
[11] = Selectivity index, ratio of CC50 for HepG2 2.2.15 cells to EC50 for HBV; type: functional
[12] = test system: Hepatitis B virus; experiment: Antiviral activity against HBV with […]-resistant polymerase N236T mutant in Huh7 cells after 5 days; type: functional, organism-based; conditions: Huh-7, 120 h
[13] = Cytotoxicity against Huh7 cells; type: cell-based, Huh-7; conditions: human
[14] = test system: Hepatitis B virus; experiment: Antiviral activity against wild type HBV in Huh7 cells after 5 days; type: functional, organism-based; conditions: Huh-7, 120 h
[15] = Cytotoxicity against HepG2 2.2.15 cells assessed as inhibition of uptake of neutral red dye after 24 hrs; type: cell-based; conditions: human
[16] = test system: Hepatitis B virus; experiment: Antiviral activity against HBV with lamivudine-resistant polymerase M204V mutant in Huh7 cells after 5 days; type: functional, organism-based; conditions: Huh-7, 120 h
[17] = Cytotoxicity against HFF cells by neutral red uptake assay; type: cell-based; conditions: human
[18] = Cytotoxicity against plated MRC5 cells by neutral red uptake assay; type: cell-based; conditions: human
[19] = Cytotoxicity against Daudi cells; type: cell-based; conditions: human
[20] = test system: Human immunodeficiency virus 1; experiment: Antiviral activity against HIV1 LAI in MT2 cells assessed as inhibition of p24 antigen production; type: functional, organism-based; conditions: Human immunodeficiency virus 1, LAI
[21] = Cytotoxicity against MT2 cells after 72 hrs; type: cell-based; conditions: human

| Compound | EC50 [1] [µM] | EC50 [2] [µM] | EC50 [3] [µM] | EC50 [4] [µM] | EC50 [5] [µM] | EC50 [6] [µM] | EC50 [7] [µM] | EC50 [8] [µM] | EC50 [9] [µM] | EC50 [10] [µM] | Ratio CC50/EC50 [11] | EC50 [12] [µM] | CC50 [13] [µM] | EC50 [14] [µM] | CC50 at 24 h [15] [µM] | EC50 [16] [µM] | CC50 [17] [µM] | CC50 [18] [µM] | other results |
| --- | --- | --- | --- | --- | --- | --- | --- | --- | --- | --- | --- | --- | --- | --- | --- | --- | --- | --- | --- |
| CCCCCCCCCCCCCCCCOCCCOP(=O)(O)CC/C=C\Cn1cnc2c(=O)nc(N)[nH]c21 | 13 | 1.8 | > 100 | > 100 | 12.2 | 2.4 | 48 | 11 | 7.5 | 5.8 | >417 | 6.3 | 929 | 8.8 | > 1000 | 16 | > 100 |  |  |
| Nc1ncnc2c1ncn2C/C=C\CCP(=O)(O)O |  | > 100 |  |  | > 300 | > 30 | > 4 | > 100 | > 100 | > 30 |  |  |  |  | 639 |  | > 100 | > 100 |  |
| Cc1cn(C/C=C\CCP(=O)(O)O)c(=O)[nH]c1=O |  | > 100 |  |  | > 300 | > 30 |  | > 100 | > 100 | > 30 |  |  |  |  | 620 |  | > 100 | > 100 |  |
| CCCCCCCCCCCCCCCCOCCCOP(=O)(O)CC/C=C\Cn1cnc2c(N)ncnc21 | 7.7 | 15.7 | 8.1 | 15 | > 20 | 1.5 | 0.1 | > 20 | > 30 | 18 | 77 | 10 | 110 | 9.2 | 116 | 9 | 43 |  | CC50 [19]: > 100 µM |
| Nc1ccn(C/C=C\CCP(=O)(O)O)c(=O)n1 |  | > 100 |  |  | > 60 | > 30 |  | > 100 | > 100 | > 30 |  |  |  |  | 600 |  | > 100 | > 100 |  |
| CCCCCCCCCCCCCCCCOCCCOP(=O)(O)CC/C=C\Cn1ccc(=O)[nH]c1=O |  | > 20 |  |  |  | > 30 |  | > 100 | > 100 | > 30 |  |  |  |  | 155 |  | > 100 |  |  |
| Nc1nc(=O)c2ncn(C/C=C\CCP(=O)(O)O)c2[nH]1 |  | 68.4 |  |  | 7.2 | > 30 |  | > 100 | > 100 | > 30 |  |  |  |  | 610 |  | > 100 | > 100 |  |
| CCCCCCCCCCCCCCCCOCCCOP(=O)(O)CC/C=C\Cn1ccc(N)nc1=O | > 100 | 2.9 | > 100 | > 100 | 3.7 | 3.9 |  | > 20 | > 20 | 4.7 | 159 | 4 | 523 | 3.4 | 621 | > 100 | 56 |  | EC50 [20]: 2.5 µM; CC50 at 72 h [21]: 3.3 µM |
| CCCCCCCCCCCCCCCCOCCCOP(=O)(O)CC/C=C\Cn1cc(C)c(=O)[nH]c1=O | > 100 | 0.66 | > 100 | > 100 | 3 | 2 |  | > 20 | > 20 | 0.9 | 61 | 3.8 | 120 | 3 | 122 | > 100 | > 100 |  | EC50 [20]: 1 µM; CC50 at 72 h [21]: 1.3 µM |
| O=c1nc(O)ccn1C/C=C\CCP(=O)(O)O |  | > 100 |  |  | > 300 | > 30 |  | > 100 | > 100 | > 30 |  |  |  |  | 712 |  | > 100 | > 100 |  |

— ChEMBL document CHEMBL1142203, “Antiviral activities of novel 5-phosphono-pent-2-en-1-yl nucleosides and their alkoxyalkyl phosphonoesters” (Antimicrob Agents Chemother, 2007)
